From patent publication US8754038B2, “Template-fixed peptidomimetics with CCR10 antagonistic activity” (priority 2009, dated 2014)
Numbered stars: 1 amine (or outer) side, 2 acyl side, 3 side chain; on linkers, the order of the positions; unused ones are H or OH. Square brackets hold non-standard residues; d marks the D form. Side chains are listed from the residue outwards. Peptide text beside a SMILES is read from it. * marks the point of attachment. Pro(trans-4-cHex) = O=C(O)[C@@H]1C[C@@H](C2CCCCC2)CN1; X1 = O=C([C@@H]1C[C@@H](Cc2ccc(Br)cc2)CN1[*:1])[*:2]; Oic = O=C(O)[C@@H]1C[C@@H]2CCCC[C@@H]2N1; Pro(cis-4-F) = O=C(O)[C@@H]1C[C@H](F)CN1; X13 = CC1(C)CC[C@@H](C(=O)[*:2])N1[*:1]; Hyp = O=C(O)[C@@H]1C[C@@H](O)CN1; Benzyl(4-Br) = Brc1ccc(C*)cc1; N(Me)CH2CH2OMe = COCCN(C)*; Ac5c = NC1(C(=O)O)CCCC1; Dab = NCC[C@H](N)C(=O)O; X14 = N#Cc1cccc(C*)c1; CO = O=C([*:1])[*:2]; NHPh = c1ccc(N*)cc1; Ms = CS(=O)(=O)*

Legend:
human CCR10 [1] = molecular target: T1, human CCR10 (Homo sapiens, UniProt P46092); test: Calcium flux assay (CCR10 antagonism, CCL27 as agonist); format: cell-based; details: CCR10 transfected 300-19 murine pre-B cells; CCL27 30 nM
T1 construct: expressed in transfected cells
T1 sequence (P46092 1-362): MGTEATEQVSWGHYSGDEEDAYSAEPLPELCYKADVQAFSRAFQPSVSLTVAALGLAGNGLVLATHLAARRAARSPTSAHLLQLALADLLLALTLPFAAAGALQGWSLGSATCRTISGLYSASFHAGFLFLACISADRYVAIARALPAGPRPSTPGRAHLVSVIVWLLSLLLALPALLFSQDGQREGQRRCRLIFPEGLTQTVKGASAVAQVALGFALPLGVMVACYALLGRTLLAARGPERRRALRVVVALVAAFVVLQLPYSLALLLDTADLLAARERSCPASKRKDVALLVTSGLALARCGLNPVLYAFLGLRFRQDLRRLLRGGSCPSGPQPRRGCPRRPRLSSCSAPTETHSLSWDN
Experimental: (§1) Lyophilized peptides were weighed on a Microbalance (Mettler MX5) and dissolved in aqueous 90% DMSO to a final concentration of 10 mM unless otherwise stated. Stock solutions were kept at +4° C., and protected from light.
(§2) Peptides were assayed for CCR10 antagonism in a calcium flux assay and in a chemotaxis assay using a mouse pre-B cell line 300-19 stably transfected with human CCR10, and with human CCL27 as agonist.
The calcium flux release was assessed using CCR10 transfected 300-19 murine pre-B cells. These cells were labeled as a batch with Calcium4 Reagent (Molecular Devices, Sunnyvale, Calif.) in HBSS buffer for 60 min.
After dispensing 8×10^4 cells in each well of a 384-well black plate, a concentrated solution of the β-hairpin peptidomimetics of this invention in HBSS+0.1% BSA+0.1% DMSO (final concentration) was added to the cells. The entire plate was centrifuged and placed in a Flexstation II (Molecular Devices) automated plate reader. After reading a 20 s baseline, the Flexstation dispensed CCL27 (RnD systems) at a final concentration of 30 nM in HBSS+0.1% BSA onto the cells and calcium flux was measured for an additional 70 s.
Alternatively a FIipR384 (Molecular Devices) was used for read out of the 384-well plates. In this case about 8×10^4 cells were placed in each well, centrifuged, placed in the FlipR and after 5 s of baseline reading, the β-hairpin peptidomimetics in HBSS+0.1% BSA+0.1% DMSO (final concentration) were added. After an incubation time of 5 min, the CCL27 solution was added to the mixture and the calcium flux was measured for 200 s.
The maximum signal was determined from control wells without inhibitor. Percentage of inhibition was calculated from a range of compound concentrations, which were subsequently used to calculate IC50 values (Softmax Pro, Molecular Devices). All steps were carried out at room temperature.

human CCR10 [2] = molecular target: T1, human CCR10; test: Chemotaxis assay (CCR10-transfected 300-19 cells, CCL27 gradient); format: cell-based; details: CCR10-transfected 300-19 murine pre-B cells; 30 nM CCL27 gradient
Experimental: as §1, §2
The chemotactic response of CCR10-transfected 300-19 murine pre-B cells to a gradient of CCL27 (CTACK) was measured using disposable Transwell® assay plates from Costar (5 μm pore size) according to the protocol of the manufacturer. Briefly, cells were grown under sterile conditions at 37° C. with 5% CO2 in flasks containing RPMI+5% FCS, glutamine, penicillin/streptomycin (all media components were from Life Technologies) and the appropriate selection antibiotics (Puromycin, G418 or Tetracycline). For the assay, cells were pelleted by centrifugation, washed once in Dulbecco's phosphate buffered saline (DPBS), and resuspended to give 1×10^6 cells/ml in RPMI+0.5% bovine serum albumin (BSA). 100 μl of cell suspension was applied to the top of the assay filter. The β-hairpin peptidomimetics, diluted in the same assay medium, were added to both top and bottom chambers. The cells were allowed to migrate for 4-6 hours at 37° C. into the bottom chamber of the assay plate containing 30 nM of CCL27 (RnD systems). Migrated cells were counted using a FACS cytometer (Cytomics FC500, Beckman Coulter). Data normalization was performed using the number of any cells that had migrated in the absence of the β-hairpin peptidomimetic and the number of cells that have randomly migrated in absence of CCL27 [these values were taken as 100% (no inhibitory activity) and 0%, respectively]. From a range of compound concentrations IC50 were determined using Prism5 (GraphPad software).

SMILES	IC50 (human CCR10 [1]) [nM]	IC50 (human CCR10 [2]) [nM]
CS(=O)(=O)NCC[C@@H]1NC(=O)[C@H](Cc2c[nH]c3ccccc23)NC(=O)C2(CCCC2)NC(=O)[C@H](Cc2c[nH]c3ccccc23)NC(=O)[C@@H]2C[C@@H]3CCCC[C@@H]3N2C(=O)[C@H]2CCCN2C1=O [Ex. 100, cyclo(-Trp-Cyp-Trp-Dab(MeSO2)-^DPro-Oic-)] (cyclo([Ac5c]W[Dab](Ms)[dP][Oic]W))	0.2 ± 0.1	3.4
CC1(C)CC[C@H]2C(=O)N[C@@H](Cc3c[nH]c4ccccc34)C(=O)NC3(CCCC3)C(=O)N[C@@H](Cc3c[nH]c4ccccc34)C(=O)N[C@@H](CCN)C(=O)N3CCC[C@@H]3C(=O)N21 [compound 42, cyclo(-Trp-Cyp-Trp-Dab-^DPro-Pro(5,5Me2)-)] (cyclo(W[Ac5c]W[Dab][dP][X13]))	82.5 ± 30.4	14.2
NCC[C@@H]1NC(=O)[C@H](Cc2c[nH]c3ccccc23)NC(=O)C2(CCCC2)NC(=O)[C@H](Cc2c[nH]c3ccccc23)NC(=O)[C@@H]2C[C@@H](OC(=O)Nc3ccccc3)CN2C(=O)[C@H]2CCCN2C1=O [compound 57, cyclo(-Trp-Cyp-Trp-Dab-^DPro-Hyp(CONHPh)-)] (cyclo([Ac5c]W[Dab][dP][Hyp]([CO-NHPh])W))	150 ± 110	183
COCCN(C)C(=O)NCC[C@@H]1NC(=O)[C@H](Cc2c[nH]c3ccccc23)NC(=O)C2(CCCC2)NC(=O)[C@H](Cc2c[nH]c3ccccc23)NC(=O)[C@@H]2C[C@@H]3CCCC[C@@H]3N2C(=O)[C@H]2CCCN2C1=O [Ex. 97, cyclo(-Trp-Cyp-Trp-Dab((MeO(CH2)2)(Me)NCO)-^DPro-Oic-)] (cyclo([Ac5c]W[Dab]([CO-N(Me)CH2CH2OMe])[dP][Oic]W))	8.1 ± 9.1	5.6
NCC[C@@H]1NC(=O)[C@H](Cc2c[nH]c3ccccc23)NC(=O)C2(CCCC2)NC(=O)[C@H](Cc2c[nH]c3ccccc23)NC(=O)[C@@H]2C[C@@H](C3CCCCC3)CN2C(=O)[C@H]2CCCN2C1=O [compound 41, cyclo(-Trp-Cyp-Trp-Dab-^DPro-Pro((4S)cHex)-)] (cyclo([Ac5c]W[Dab][dP][Pro(trans-4-cHex)]W))	54.3 ± 22	140
NCC[C@@H]1NC(=O)[C@H](Cc2c[nH]c3ccccc23)NC(=O)C2(CCCC2)NC(=O)[C@H](Cc2c[nH]c3ccccc23)NC(=O)[C@@H]2C[C@H](F)CN2C(=O)[C@H]2CCCN2C1=O [Ex. 4, cyclo(-Trp-Cyp-Trp-Dab-^DPro-Pro((4S)F)—)] (cyclo([Ac5c]W[Dab][dP][Pro(cis-4-F)]W))	860 ± 382	42

Results, then the compound that gave them:

IC50 (human CCR10 [1]) [nM]	IC50 (human CCR10 [2]) [nM]	SMILES
11.6 ± 9.2	2.5	NCC[C@@H]1NC(=O)[C@H](Cc2c[nH]c3ccccc23)NC(=O)C2(CCCC2)NC(=O)[C@H](Cc2c[nH]c3ccccc23)NC(=O)[C@@H]2C[C@@H](OCc3ccc(Br)cc3)CN2C(=O)[C@H]2CCCN2C1=O [compound 56, cyclo(-Trp-Cyp-Trp-Dab-^DPro-Hyp(4BrBn)-)] (cyclo([Ac5c]W[Dab][dP][Hyp](Benzyl(4-Br))W))
127 ± 73	50.7	N#Cc1cccc(CO[C@@H]2C[C@H]3C(=O)N[C@@H](Cc4c[nH]c5ccccc45)C(=O)NC4(CCCC4)C(=O)N[C@@H](Cc4c[nH]c5ccccc45)C(=O)N[C@@H](CCN)C(=O)N4CCC[C@@H]4C(=O)N3C2)c1 [compound 77, cyclo(-Trp-Cyp-Trp-Dab-^DPro-Hyp(3CNBn)-)] (cyclo([Ac5c]W[Dab][dP][Hyp](X14)W))
15.8 ± 10.3	9	NCC[C@@H]1NC(=O)[C@H](Cc2c[nH]c3ccccc23)NC(=O)C2(CCCC2)NC(=O)[C@H](Cc2c[nH]c3ccccc23)NC(=O)[C@@H]2C[C@@H](Cc3ccc(Br)cc3)CN2C(=O)[C@H]2CCCN2C1=O [compound 39, cyclo(-Trp-Cyp-Trp-Dab-^DPro-Pro((4R)4BrBn)-)] (cyclo([Ac5c]W[Dab][dP][X1]W))
